Source: patent US7927849B2, “Laccase enzyme and use thereof” (AB Enzymes OY, priority 2004, dated 2011)
Where two headings read alike, the source gives them in different places. Values belong to the molecule of their own block, whether it stands above or below them.

Columns and labels:
[1] = biological target: T1, Melanocarpus albomyces laccase MaL (Melanocarpus albomyces, UniProt Q70KY3); test: Kinetic parameters of Melanocarpus albomyces laccase MaL (comparison); type: biochemical
T1 sequence (Q70KY3 51-609): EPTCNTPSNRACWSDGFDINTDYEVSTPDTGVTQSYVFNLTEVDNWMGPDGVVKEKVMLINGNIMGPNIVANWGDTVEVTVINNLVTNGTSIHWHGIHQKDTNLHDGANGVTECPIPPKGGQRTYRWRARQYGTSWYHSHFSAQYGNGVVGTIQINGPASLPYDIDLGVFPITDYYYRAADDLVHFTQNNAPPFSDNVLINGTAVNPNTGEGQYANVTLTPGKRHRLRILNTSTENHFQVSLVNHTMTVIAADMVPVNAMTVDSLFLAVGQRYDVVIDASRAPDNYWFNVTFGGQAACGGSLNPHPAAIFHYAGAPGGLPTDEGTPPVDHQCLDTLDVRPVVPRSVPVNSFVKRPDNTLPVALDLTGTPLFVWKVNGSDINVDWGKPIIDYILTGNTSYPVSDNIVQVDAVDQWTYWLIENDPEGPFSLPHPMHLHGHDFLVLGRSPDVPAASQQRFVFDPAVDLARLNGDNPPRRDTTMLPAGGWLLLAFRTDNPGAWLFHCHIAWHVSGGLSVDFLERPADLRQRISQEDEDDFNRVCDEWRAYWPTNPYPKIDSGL
Method: (§1) On syringaldazin and DMP 40 mM MES buffer, pH 6 and 25 mM succinate buffer. All activity assays were carried out at 25° C. Kinetic parameters were estimated by a nonlinear regression curve fit. The values were compared to those of Melanocarpus albomyces MaL, laccase.

[2] = biological target: T2, Thielavia arenaria ALKO4197 laccase TaLcc1, recombinant (rTaLcc1, expressed in Trichoderma reesei), SEQ ID NO: 12 (Canariomyces arenarius, UniProt F6N9E7); type: biochemical
T2 construct: predicted mature residues 22-604; no tag stated
T2 sequence (F6N9E7 with tags, fused parts or gaps): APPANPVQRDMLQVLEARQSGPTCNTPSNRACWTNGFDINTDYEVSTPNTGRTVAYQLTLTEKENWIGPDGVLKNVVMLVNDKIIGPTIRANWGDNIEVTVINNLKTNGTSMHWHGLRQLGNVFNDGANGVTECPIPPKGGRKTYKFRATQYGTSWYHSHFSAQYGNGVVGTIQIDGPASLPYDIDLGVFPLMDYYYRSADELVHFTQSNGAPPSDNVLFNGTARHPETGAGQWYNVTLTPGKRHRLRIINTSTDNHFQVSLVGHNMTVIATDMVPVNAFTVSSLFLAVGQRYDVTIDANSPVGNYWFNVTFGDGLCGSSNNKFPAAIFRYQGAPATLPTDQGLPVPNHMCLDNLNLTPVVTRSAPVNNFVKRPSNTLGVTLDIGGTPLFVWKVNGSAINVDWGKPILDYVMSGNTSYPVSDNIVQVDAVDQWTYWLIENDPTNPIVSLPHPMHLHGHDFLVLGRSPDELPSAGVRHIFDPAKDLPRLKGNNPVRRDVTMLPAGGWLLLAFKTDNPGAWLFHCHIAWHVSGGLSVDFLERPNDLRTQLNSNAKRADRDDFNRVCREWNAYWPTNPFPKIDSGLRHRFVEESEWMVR
Method: as §1

[3] = Denim bleaching: laccase-mediator (100 nkat/g, 5 mg/g, 30 min, 60° C.) compared to sodium hypochlorite (15 min, 40° C.)
Method: Different types of demin were treated with a TaLcc1 laccase product from Trichoderma strain RF5597 and DeniLite II Base from Novozymes and the results obtained were compared to hypochlorite bleaching. All together 27 pieces of different kinds of denim (whole jeans), which had been previously washed with cellulase after desizing to different abrasion levels or had been only desized with ECOSTONE®A200 (60° C., 10 min), were collected for the test (Table 15). The jeans were made of Indigo dyed denim, except the English jeans contained Indigo dyed denim with sulphur bottom. Jeans were cut in such a way that pieces from the same pair of jeans could be used for all tests.
The jeans were made of Indigo dyed denim (right hand twill), except the English jeans contained Indigo dyed denim with sulphur bottom. The weights of the original (i.e. not desized) denim fabrics were typically higher than 475 g/m^2 (14 oz/yd^2). The weights of three 10 cm×10 cm pieces were measured after 24 hours incubation at room temperature (ca. 22° C. and at relative moisture ca. 64%).
The laccase treatments were performed with Electrolux's Wascator FOM 71 CLS washer extractor under optimal conditions for each enzyme, described in Table 16. Methyl syringate (Example 7) was used as a mediator. Laccase was inactivated after draining by raising the pH above 11 by NaOH (10 min, 60° C.) and rinsing for three times. The fabrics were dried in a tumbler.
The sodium hypochlorite bleaching was performed with Electrolux's Wascator FOM 71 CLS washer extractor using denim obtained from the same jeans as in laccase treatments under conditions described in Table 17. Sodium hydroxide was added before adding 25 ml/l of 10% sodium hypochlorite solution (Klorite Forte, Farmos Oy) to keep the pH above 10.5 during the treatment. After draining the bleach liquor, there was one 2 minutes rinsing step with the liquor ratio of 1:20 before dechlorinating with sodium thiosulphate. After dechlorinating the denim samples were rinsed 3 times for 2 minutes with the liquor ratio of 1:20. The fabrics were dried in a tumbler.
The bleaching effect was evaluated by measuring the colour as reflectance values as in Example 7. […] Different looks were obtained depending on the type of the denim and cellulase treatment used. “Sulphur-bottom type” denim was the most difficult to bleach.

[4] = substrate: COc1cc(/C=N/N=C/c2cc(OC)c(O)c(OC)c2)cc(OC)c1O; test: purified protein, by the assay type; type: biochemical, Thielavia arenaria; conditions: other: syringaldazin and DMP, 40 mM MES buffer, pH 6 and 25 mM succinate buffer, 25° C.
Method: as §1

[5] = ABTS, 25 mM succinate buffer, pH 4.5, 25° C.
[6] = sample B1: Basic Jeans, Ecostone P1250
[7] = sample E1: English jeans (sulphur bottom), desized only
[8] = sample E2: English jeans, Ecostone NP2000
[9] = sample E3: English jeans, Rocksoft NCE-EA
[10] = sample E4: English jeans, Rocksoft NCE-2X
[11] = sample E5: English jeans, Ecostone L900
[12] = sample E6: English jeans, Ecostone L900
[13] = sample E7: English jeans, Ecostone L900
[14] = sample L1: Lee Cooper jeans, desized only
[15] = sample L2: Lee Cooper jeans, Ecostone L
[16] = sample L3: Lee Cooper jeans, Biotouch C29
[17] = sample L4: Lee Cooper jeans, Ecostone L
[18] = sample L5: Lee Cooper jeans, Indiage Max L
[19] = sample L6: Lee Cooper jeans, Indiage Super L
[20] = sample L7: Lee Cooper jeans, Ecostone CXP500 Exper.
[21] = sample L8: Lee Cooper jeans, Ecostone CXP experimental
[22] = sample L9: Lee Cooper jeans, Ecostone N400
[23] = sample T1: Tincan jeans, desized only
[24] = sample T2: Tincan jeans, Ecostone N400
[25] = sample T3: Tincan jeans, Ecostone L300
[26] = sample T4: Tincan jeans, Denimax 991S
[27] = sample W1: Warric jeans, desized only
[28] = sample W2: Warric jeans, Ecostone P4500
[29] = sample W3: Warric jeans, Indiage Max G
[30] = sample W4: Warric jeans, Ecostone NP2000
[31] = sample W5: Warric jeans, Ecostone L900
[32] = sample W6: Warric jeans, Denabraide MBL 65 E
[33] = syringaldazin and DMP, 40 mM MES buffer, pH 6 and 25 mM succinate buffer, 25° C.

Molecule: CCn1c(=NN=c2sc3cc(S(=O)(=O)O)ccc3n2CC)sc2cc(S(=O)(=O)O)ccc21 [ABTS, 2,2′azinobis-3-ethylbenzthiazole-6-sulphonate]
kcat ([1]; pH 4.5): 78.17 s⁻¹
Km [2, 5]: 75 µM
kcat [2, 5]: 68.83 s⁻¹

L* after treatment [3, 6]: 40.62
b* after treatment [3, 6]: −17.37
L* after treatment [3, 7]: 21.91
b* after treatment [3, 7]: −15.03
L* after treatment [3, 8]: 33.30
b* after treatment [3, 8]: −16.43
Increase of L* [3, 9]: 9.40
L* after treatment [3, 9]: 34.13
b* after treatment [3, 9]: −16.73
L* after treatment [3, 10]: 35.83
b* after treatment [3, 10]: −16.86
L* after treatment [3, 11]: 33.85
b* after treatment [3, 11]: −16.48
L* after treatment [3, 12]: 30.61
b* after treatment [3, 12]: −16.65
L* after treatment [3, 13]: 32.36
b* after treatment [3, 13]: −16.75
L* after treatment [3, 14]: 31.23
b* after treatment [3, 14]: −20.83
L* after treatment [3, 15]: 44.11
b* after treatment [3, 15]: −18.60
L* after treatment [3, 16]: 39.71
b* after treatment [3, 16]: −19.67
L* after treatment [3, 17]: 40.63
b* after treatment [3, 17]: −19.25
L* after treatment [3, 18]: 39.47
b* after treatment [3, 18]: −19.48
L* after treatment [3, 19]: 41.50
b* after treatment [3, 19]: −18.68
L* after treatment [3, 20]: 37.91
b* after treatment [3, 20]: −19.85
L* after treatment [3, 21]: 40.74
b* after treatment [3, 21]: −19.12
L* after treatment [3, 22]: 40.82
b* after treatment [3, 22]: −18.82
L* after treatment [3, 23]: 33.97
b* after treatment [3, 23]: −17.95
L* after treatment [3, 24]: 34.38
b* after treatment [3, 24]: −18.22
L* after treatment [3, 25]: 40.33
b* after treatment [3, 25]: −18.30
L* after treatment [3, 26]: 37.66
b* after treatment [3, 26]: −18.58
L* after treatment [3, 27]: 27.75
b* after treatment [3, 27]: −18.76
L* after treatment [3, 28]: 39.35
b* after treatment [3, 28]: −17.39
L* after treatment [3, 29]: 41.11
b* after treatment [3, 29]: −16.79
L* after treatment [3, 30]: 38.07
b* after treatment [3, 30]: −17.33
L* after treatment [3, 31]: 37.12
b* after treatment [3, 31]: −18.03
L* after treatment [3, 32]: 36.65
b* after treatment [3, 32]: −17.95
Molecule: OCl [sodium hypochlorite, reference compound]

kcat [1, 33]: 78.5 s⁻¹
Molecule: COc1cc(/C=N/N=C/c2cc(OC)c(O)c(OC)c2)cc(OC)c1O [Syringaldazin, syringaldazine]

Molecule: COc1cccc(OC)c1O [DMP, 2,6-dimethoxy phenol]
kcat [1, 33]: 69.33 s⁻¹
kcat [2, 33]: 67.17 s⁻¹

B1: Thielavia arenaria ALKO4197 laccase TaLcc1, recombinant (rTaLcc1, expressed in Trichoderma reesei), SEQ ID NO: 12 (Canariomyces arenarius) (protein)
chain: T2 sequence (F6N9E7 with tags, fused parts or gaps)
notes: predicted mature residues 22-604; no tag stated
Km [4]: 4.3 µM
kcat [4]: 32.3 s⁻¹
kcat/Km [4]: 7.52e+06 M⁻¹ s⁻¹
